From US6784155B1, “Inhibitor and stimulator of stem cell proliferation and uses thereof” (Wellstat Therapeutics Corporation, priority 1996, dated 2004)

Test system: cobblestone area forming cells (CAFC)
Test: Cobblestone assay (CAFC)
Format: cell-based, mouse
Method: The cobblestone assay was conducted as described by Ploemacher and colleagues (Ploemacher et al., Blood 74:2755-63, 1989; van der Sluijs et al., Exp. Hematol. 18:893-6, 1990; Ploemacher et al., Blood 78:2527-33, 1991; Ploemacher et al., J. Tiss. Cult. Meth. 13:63-68, 1991; Down and Ploemacher, Exp. Hematol. 21:213-21, 1993). The cobblestone assay measures the appearance of groups of cells (or “cobblestones”) within a monolayer of stromal cells. Very primitive stem cells will not form colonies in soft agar but do form cobblestones in the presence of a stromal monolayer. The cells which form cobblestones are referred to as “cobblestone area forming cells” (CAFC). The more differentiated (e.g., GM-CFC) progenitors form transient cobblestones which appear and then disappear within the first few weeks of culture whereas more primitive stem cells (e.g., long-term repopulating cells) form cobblestones which appear only after 4-5 weeks of culture. Thus, CAFC forming on days 7-14 of culture are enriched in CFU-GM, CAFC forming on […] are enriched in CFU-MIX, and CAFC forming on days 28-35 are enriched in long-term repopulating cells. […]
The frequency of cobblestone area forming cells (CAFC) was calculated as previously described (Ploemacher et al., Blood 78:2527-33, 1991; Ploemacher et al., J. Tiss. Cult. Meth. 13:63-68, 1991; Breems et al., Leukemia 8:1095-104, 1994). […]

Human alpha chain: purified, non-recombinant human alpha hemoglobin chain isolated by reversed-phase HPLC
increase of the proportion of late-forming CAFC (cycling stem cells (testosterone propionate treated B6D2F1), 100 ng/10^6 cells, 4 hours): approximately 5 fold | effect on CAFC of non-cycling stem cells (non-cycling stem cells): no effect
